The record followed here is PMC6287599, “2,6-Bis(2-Benzimidazolyl)Pyridine (BBP) Is a Potent and Selective Inhibitor of Small Conductance Calcium-Activated Potassium (SK) Channels” (Frontiers in Pharmacology, 2018).

The target in one test is T1, hSK3 WT (Homo sapiens, UniProt Q9UGI6).
T1 construct: expressed in transfected cells; host or cells: HEK293 (transient, co-transfected with eGFP)
Briefly: Manual whole cell patch clamp, HEK293 transiently transfected with hSK3 WT. The format is cell-based. Conditions: BBP 1 μM, compared to positive control bicuculline methiodide 100 μM, n = 5, read-out: Inhibition of hSK3 current. As to the method:
(§1) HEK293 cells were transiently co-transfected with the plasmid of interest (hBK, hSK1, hSK2, hSK3 WT, rSK3 H491N, or hIK) and eGFP using standard Lipofectamine™ 2000 (Thermo Fisher Scientific, Waltham, Massachussets, USA) transfection protocols. After transfection, cells were incubated overnight before the experiments.
(§2) Manual patch clamp experiments were performed at room temperature in the whole cell configuration with a HEKA EPC9 amplifier and the Patchmaster software (HEKA Elektronik, Ludwigshafen, Germany). All currents were elicited every 2 s using an incremental 200 ms voltage-ramp protocol starting at −80 mV and finishing at +80 mV from a holding potential of 0 mV. […] Currents were measured using the same solutions as the ones used for automated patch clamp, with symmetrical potassium concentrations and a free intracellular calcium concentration of 400 nM. […]
(§3) To assess the effect of BBP on other calcium-activated potassium channels (hBK, hSK3 WT, rSK3 H491N, and hIK), each individual current was first normalized to its cell size using membrane's capacitance (pA/pF) before statistical analysis. […] Statistical significance between saline and the effect of both BBP and the corresponding reference compound was determined for each channel using one-way ANOVA analysis. […]
A general note: Patch clamp records ionic current or voltage across a cell membrane.

The next test addresses hSK1 (Homo sapiens, UniProt Q92952). Briefly: Manual whole cell patch clamp, HEK293 transiently transfected with hSK1. The format is cell-based. Conditions: BBP 1 μM, compared to positive control bicuculline methiodide 100 μM, n = 6, read-out: Inhibition of hSK1 current. As to the method: as §1, §2, §3

In the case of `c1cc(-c2nc3ccccc3[nH]2)nc(-c2nc3ccccc3[nH]2)c1` [BBP, 2,6-Bis(2-benzimidazolyl)pyridine], the inhibition at 1 µM on hSK3 WT is 92.5 ± 2.3%; at hSK1, 93.7 ± 1.6%.

Usually inhibition stands for the relative decrease from the control value, in per cent.
